From article PMC7915867, “Discovery of a Small Molecule Inhibitor of Human Adenovirus Capable of Preventing Escape from the Endosome” (International Journal of Molecular Sciences, 2021)
Where two headings read alike, the source gives them in different places.

What was measured:
[1] = system: HAdV5-GFP; assay: microbe, parasite or virus in culture; assay type: cell-based, human adenovirus; conditions: for Plaque Assay (10 μM) (%) Inhibition: HAdV5-GFP, low MOI (0.06 vp/cell), 293β5 cell line; for inhibition at 10 µM / IC50: Human adenovirus sp.; for inhibition at 10 µM: read-out: Plaque Assay (10 μM) (%) Inhibition; for IC50: read-out: Plaque Assay IC50; for Selectivity Index (SI): ratio of CC50 to IC50 in plaque assay
Protocol: Compounds were measured at concentrations of 10 μM and in a dose−response assay ranging from 10 to 0.3 μM using low MOI infections (0.06 vp/cell) in a plaque assay. […] Cells were infected with HAdV5-GFP (0.06 vp/cell) and rocked for 2 h at 37 °C, when cells reached 80%–90% confluency. When the incubation was finished, the inoculum was removed followed by washing the cells once with PBS. […] The compounds were also added to the mixture in concentrations ranging from 10 to 0.3 μM. After incubation for 7 days at 37 °C, we scanned plates with a Typhoon FLA 9000 imager (GE Healthcare Life Sciences, MA, USA) and quantified plaques with ImageJ [47].

[2] = system: HAdV5-GFP; conditions: read-out: IC50 (anti-HAdV); cited from earlier work
[3] = system: A549 cells; conditions: cited from earlier work
[4] = Cytotoxicity assay (AlamarBlue); assay type: cell-based; conditions: human, A549 cells, A549 cell line
Protocol: The cytotoxicity of these derivatives was tested by commercial kit AlamarBlue® (Ref. DAL1025, Invitrogen, MA, USA). […] The cytotoxic concentration 50 (CC50) value was obtained by using the statistical package GraphPad Prism. This assay was performed in duplicate.

[5] = system: wild-type HAdV5; assay: Virus yield reduction (virus burst assay); assay type: cell-based, human adenovirus; conditions: A549 cells, HAdV 100 vp/cell, 48 h; niclosamide 5 μM, 16 at 10-fold IC50; versus DMSO
Protocol: After 48 h, cells were harvested and subjected to three rounds of freeze/thaw. Serial dilutions of clarified lysates were titrated on A549 cells (3 × 10^4 cells/well), and we calculated TCID50 values using an endpoint dilution method.

[6] = system: HAdV-5 DNA replication; assay: HAdV DNA quantification by real-time PCR (DNA replication); assay type: cell-based, human adenovirus; conditions: A549 cells, 24 h, HAdV5 100 vp/cell; 16 at 7.8 μM (10-fold IC50), niclosamide 5 μM; versus DMSO
Protocol: All samples were carried out in duplicate. After incubation for 24 h at 37 °C, DNA was purified from the cell lysate with the E.Z.N.A.® Tissue DNA Kit (Omega Bio-tek, Norcross, GA, USA) following the manufacturer’s instructions. TaqMan primers and probes for a common region of the HAdV5 hexon were designed with the GenScript Real-Time PCR (TaqMan) Primer Design software (GenScript, Leiden, Netherlands). Oligonucleotides sequences were: AQ1: 5′-GCCACGGTGGGGTTTCTAAACTT-3′; AQ2: 5′-GCCCCAGTGGTCTTACATGCACAT-3′; Probe: 6-FAM-5′-TGCACCAGACCCGGGCTCAGGTACTCCGA-3′-TAMRA. Real-time PCR mixtures contained 9.5 μL of the purified DNA, AQ1 and AQ2 at a concentration of 200 nM each and Probe at a concentration of 50 nM in a total volume of 25 μL. The PCR cycling protocol was 95 °C for 3 min followed by 40 cycles of 95 °C for 10 s and 60 °C for 30 s. Human glyceraldehyde-3-phosphate dehydrogenase (GAPDH) gene was applied as internal control. Oligonucleotides sequences for GAPDH and conditions were previously reported by Rivera et al..
For quantification, gene fragments from hexon and GAPDH were cloned into the pGEM-T Easy vector (Promega, MA, USA), and known concentrations of template were used to produce a standard curve in parallel for each experiment. All assays were done in thermal cycler LightCycler® 96 System (Roche, Basel, Switzerland).

[7] = system: HAdV5; assay: HAdV-mediated endosome disruption (α-sarcin co-delivery assay); assay type: cell-based, human adenovirus; conditions: A549 cells, niclosamide 5 μM, independent of virus concentration
Protocol: A549 cells (~20,000 cells/well) were incubated in DMEM without cysteine or methionine supplemented with 10% dialyzed FBS [DMEM (−)] in black 96-well plates for 1 h before infection. […] The medium was then removed and replaced with 50 μL DMEM (−) containing 0.1 mg/mL α-sarcin (Santa Cruz Biotechnology, Dallas, TX, USA) and the virus and drug mixtures. After 2 h at 37 °C, the Click-iT HPG Alexa Fluor 488 Protein Synthesis Assay Kits (Invitrogen, MA, USA) were used to analyze protein synthesis according to the manufacturer’s instructions. The incorporation of the amino acid analog of methionine L-homopropargylglycine (HPG) containing Alexa Fluor 488 azide was measured using a Typhoon 9410 imager (GE Healthcare Life Sciences, MA, USA) and calculated subtracting the background level of the control well containing L-homopropargylglycine (HPG) and α-sarcin but not virus (100% incorporation).

In the case of `O=C(NCC1CCOCC1)c1cc(Cl)ccc1O` [Compound 18, 5-Chloro-2-hydroxy-N-((tetrahydro-2H-pyran-4-yl)methyl)benzamide], the “Plaque Assay (10 μM) (%) Inhibition” value [1] is reported as “no anti-HAdV activity” and the inhibition at 10 µM [1] is reported as 0%.

In the case of `CC(C)(C)OC(=O)NCCCCNC(=O)c1cc(Cl)ccc1O` [Compound 25, tert-Butyl (4-(5-chloro-2-hydroxybenzamido)butyl)carbamate], the inhibition at 10 µM [1] is reported as 74 ± 5.7%.

For `CC(C)C(NC(=O)c1cc(Cl)ccc1O)C(=O)Nc1ccc([N+](=O)[O-])cc1Cl` (stereo not drawn) [Compound 6], the IC50 [2] is given as 0.45 µM and the CC50 [3] is given as 200 µM.

In the case of `CCCCCCNC(=O)c1cc(Cl)ccc1O` [Compound 24, 5-Chloro-N-hexyl-2-hydroxybenzamide], the inhibition at 10 µM [1] is reported as 98.5 ± 2.1%, the IC50 [1] is reported as 3.73 ± 0.64 µM and the “Selectivity Index (SI)” value [1] is reported as 6.4. The CC50 at 48 h [4] was 23.8 ± 3.1 µM.

For `C[C@H](NC(=O)c1cc(Cl)ccc1O)C1CCCCC1` [Compound 17, (S)-5-Chloro-N-(1-cyclohexylethyl)-2-hydroxybenzamide], the inhibition at 10 µM [1] was 100%, the IC50 [1] was 0.51 ± 0.14 µM and the “Selectivity Index (SI)” value [1] was 45.1. For the same molecule, the CC50 at 48 h [4] was 23 ± 1.3 µM.

With `CN1CCN(CCNC(=O)c2cc(Cl)ccc2O)CC1` [Compound 22, 5-Chloro-2-hydroxy-N-(2-(4-methylpiperazin-1-yl)ethyl)benzamide] the “Plaque Assay (10 μM) (%) Inhibition” value [1] was “neither piperazine analogue (21 and 22) nor the morpholine analogue 23 showed meaningful inhibitory activity” and the inhibition at 10 µM [1] was 0%.

Molecule `O=C(NC1CCCCC1)c1cc(Cl)ccc1O` [Compound 12, 5-Chloro-N-cyclohexyl-2-hydroxybenzamide] has an inhibition at 10 µM [1] of 57.6 ± 0.2%.

With `O=C(NC1CCCCCC1)c1cc(Cl)ccc1O` [Compound 13, 5-Chloro-N-cycloheptyl-2-hydroxybenzamide] the inhibition at 10 µM [1] was 99.6 ± 0.2%, the IC50 [1] was 4.7 ± 0.1 µM and the “Selectivity Index (SI)” value [1] was 6.6. It also gave a CC50 at 48 h [4] of 30.9 ± 6.3 µM.

For `CC(=O)N1CCN(C(=O)c2cc(Cl)ccc2O)CC1` [Compound 27, 1-(4-(5-Chloro-2-hydroxybenzoyl)piperazin-1-yl)ethanone], the inhibition at 10 µM [1] was 0%.

For `O=C(NCCC1CCCCC1)c1cc(Cl)ccc1O` [Compound 20, 5-Chloro-N-(2-cyclohexylethyl)-2-hydroxybenzamide], the inhibition at 10 µM [1] was 97.8 ± 1.7%, the IC50 [1] was 1 ± 0.1 µM and the “Selectivity Index (SI)” value [1] was 64.3. The CC50 at 48 h [4] was 66.3 ± 7.9 µM.

In the case of `O=C(Nc1ccc([N+](=O)[O-])cc1Cl)c1cc(Cl)ccc1O` [Compound 3, niclosamide, reference compound], the inhibition at 10 µM [1] is reported as 100%, the IC50 [1] is reported as 0.6 ± 0.05 µM and the “Virus Yield Reduction” value [5] is reported as 82 ± 35 fold. For the same molecule, the “Inhibition of HAdV-5 DNA replication (qPCR)” value [6] was “prevented any detectable DNA replication” and the “HPG incorporation compared to control without α-sarcin” value [7] was “under 50%”.

For `O=C(Nc1cc(F)cc(C(F)(F)F)c1)c1cc(Cl)ccc1O` [Compound 4], the IC50 [2] is listed as 0.18 µM and the CC50 [3] is listed as 120 µM.

With `CC(C)(C)OC(=O)N1CCN(CCNC(=O)c2cc(Cl)ccc2O)CC1` [Compound 21, tert-Butyl 4-(2-(5-chloro-2-hydroxybenzamido)ethyl)piperazine-1-carboxylate] the “Plaque Assay (10 μM) (%) Inhibition” value [1] was “neither piperazine analogue (21 and 22) nor the morpholine analogue 23 showed meaningful inhibitory activity” and the inhibition at 10 µM [1] was 22.2 ± 13.2%.

Work on `CC(C)(C)OC(=O)N1CCC(NC(=O)c2cc(Cl)ccc2O)CC1` [Compound 15, tert-Butyl 4-(5-chloro-2-hydroxybenzamido)piperidine-1-carboxylate] yielded an inhibition at 10 µM [1] of 52.2 ± 7.1%.

With `O=C(NC1CCOCC1)c1cc(Cl)ccc1O` [Compound 14, 5-Chloro-2-hydroxy-N-(tetrahydro-2H-pyran-4-yl)benzamide] the “Plaque Assay (10 μM) (%) Inhibition” value [1] was “completely inactive” and the inhibition at 10 µM [1] was 0%.

`O=C(NC1CCCC1)c1cc(Cl)ccc1O` [Compound 11, 5-Chloro-N-cyclopentyl-2-hydroxybenzamide] gave an inhibition at 10 µM [1] of 22.6 ± 7.4%.

In the case of `CC1(Nc2ccc(NC(=O)c3cc(Cl)ccc3O)c(Cl)c2)CCCC1` [Compound 5], the IC50 [2] is given as 0.27 µM and the CC50 [3] is given as 157 µM.

In the case of `O=C(NCCN1CCOCC1)c1cc(Cl)ccc1O` [Compound 23, 5-Chloro-2-hydroxy-N-(2-morpholinoethyl)benzamide], the “Plaque Assay (10 μM) (%) Inhibition” value [1] is reported as “neither piperazine analogue (21 and 22) nor the morpholine analogue 23 showed meaningful inhibitory activity” and the inhibition at 10 µM [1] is reported as 0%.

Molecule `O=C(c1cc(Cl)ccc1O)N1CCCCC1` [Compound 26, (5-Chloro-2-hydroxyphenyl)(piperidin-1-yl)methanone] has an inhibition at 10 µM [1] of 0%.

For `CN1CCN(C(=O)c2cc(Cl)ccc2O)CC1` [Compound 28, (5-Chloro-2-hydroxyphenyl)(4-methylpiperazin-1-yl)methanone], the inhibition at 10 µM [1] was 0%.

Molecule `CC(C)(C)OC(=O)N1CCC(CNC(=O)c2cc(Cl)ccc2O)CC1` [Compound 19, tert-Butyl 4-((5-chloro-2-hydroxybenzamido)methyl)piperidine-1-carboxylate] has an inhibition at 10 µM [1] of 88.5 ± 1.9%.
